{"source": "patent US9469878B2", "about": "“Methods of treating cancer comprising targeting NQO1” (The Board of Regents of the University of Texas System, priority 2010, dated 2016)", "key": {"[1]": {"biological_target": "T1, NQO1 in 231-NQ+ cell extracts (Homo sapiens, UniProt P15559)", "T1 construct": "expressed in transfected cells; host or cells: MDA-MB-231 (231-NQ+), S9 supernatant", "T1 sequence (P15559 whole entry)": "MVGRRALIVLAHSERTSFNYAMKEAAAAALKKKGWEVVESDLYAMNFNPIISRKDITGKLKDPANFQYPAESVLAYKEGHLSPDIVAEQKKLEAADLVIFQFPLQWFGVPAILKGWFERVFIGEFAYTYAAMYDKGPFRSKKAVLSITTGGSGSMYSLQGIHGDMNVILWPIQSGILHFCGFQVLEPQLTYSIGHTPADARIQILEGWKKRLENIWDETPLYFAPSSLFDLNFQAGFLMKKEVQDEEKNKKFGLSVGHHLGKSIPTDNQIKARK", "test": "Oxygen consumption in S9 cell extracts", "type": "biochemical", "conditions": "in 4 h, 231-NQ+ versus 231-NQ− cell extracts"}, "[2]": {"test_system": "NQO1-deficient LNCaP cells", "test": "Relative survival assay", "type": "cell-based, human", "protocol": "Relative DNA cell survival assays were assessed after various treatments. […] Cells were then mock-treated or treated with various doses of β-lap (for 2 h) in the presence or absence of dicoumoral as indicated. Drug-free medium was then added and cells allowed to grow for 5-7 days until control cells reached ˜100% confluence. […] Results were reported as means±SE from at least three independent experiments."}, "ZR751": {"test_system": "ZR751", "parameters": "LD50 β-Lap + CAT: unit not given beside the values", "protocol": "(§1) Cells were cultured and treated as described above. […] Experiments were repeated at least three times, and data expressed as relative survival (treated/control×100%) means±SEM. […] The multi-target model was used to describe the shape of relative survival curves. In this model, a final slope (D0) resulting from multiple-event killing and quasithreshold (Dq) doses were used to represent the size or width of the shoulder of the curve. The extrapolation number (n) is also a measure of the width of the shoulder. The three parameters, n, Do, and Dq were related by the expression: loge n=Dq/Do.\n(§2) Cells were treated with β-lap with or without dicoumarol for 2 h. […] Data were expressed as relative survival (treated/control×100%). Experiments were repeated at least three times, and data expressed as relative survival means±SEM. […] Human mammary epithelial cells were plated in 48 well dishes in growth media containing a 50:50 mixture of MGEM/DME:F12 medium supplemented with insulin, human epidermal growth factor and hydrocortisone."}, "H2185": {"test_system": "H2185", "parameters": "LD50 β-Lap + CAT: unit not given beside the values", "protocol": "as §1, §2"}, "HTB122": {"test_system": "HTB122", "parameters": "LD50 β-Lap + CAT: unit not given beside the values", "protocol": "as §1, §2"}, "MCF-7": {"test_system": "MCF-7", "parameters": "LD50 β-Lap + CAT: unit not given beside the values", "protocol": "as §1, §2"}, "HTB24": {"test_system": "HTB24", "parameters": "LD50 β-Lap + CAT: unit not given beside the values", "protocol": "as §1, §2"}, "HCC1937": {"test_system": "HCC1937", "parameters": "LD50 β-Lap + CAT: unit not given beside the values", "protocol": "as §1, §2"}, "[3]": {"test_system": "wild-type *1/*1 non-small cell lung cancer (NSCLC) cell lines", "test": "LD50 responses of NSCLC cell lines treated with β-Lap", "type": "cell-based, human", "conditions": "all of the wild-type *1/*1 NSCLC cells, 2 h treatment, 7 days later", "protocol": "FIG. 16 depicts NQO1 levels predict response to NQO1 bioactivatable therapies. In (a) LD50 responses of non-small cell lung cancer (NSCLC) cell lines treated with β-Lap for 2 h and harvester 7 days later. LD50 responses were plotted as a function of NQO1 enzymatic levels. The notations, *1/*1 and *2/*2 represent the NQO1 status of each cell line as homozygous wild type (*1/*1) or homozygous polymorphic (*2/*2) genotypes. Note that all heterozygote cells containing one wild-type allele (*1) are wild-type, phenotypically, for NQO1 expression, such that only homozygous *2/*2 or 3/3 are considered non-responsive to NQO1 bioactivatable drugs. Note the high resistance of H596 and H2862 cell lines to β-lapachone compared to all of the wild-type *1/*1 cells with LD50 values less than 5 μM. Note also that *3/*3 SNPs in NQO1 are far more rare than *2/*2 single point mutations in NQO1. In (b), Kaplan-Meier survival curve of mice bearing orthotopic lung tumors implanted with *1/*1 A549 cells. Mice were treated intravenously (5 doses every other day) with β-lap-HPβ-CD or vehicle alone (HPβ-CD). Similar studies with *2/*2 or *3/*3 tumors were performed and these tumors were non-responsive to β-lapachone or other NQO1 bioactivatable drug therapies."}, "PARP-1 in PC-3 cells": {"test_system": "PARP-1 in PC-3 cells", "test": "PAR formation (PARP-1 hyperactivation), Western blot", "type": "cell-based, human", "protocol": "Whole-cell extracts were prepared, proteins separated by SDSPAGE, and Western blots developed using SuperSignal® West Pico Chemiluminescent substrate (Thermo Scientific, Rockford, Ill.), and exposed using Autoradiography Film (Denville Scientific Inc., Metuchen, N.J.). Both PAR (BD Pharmingen, San Jose, Calif.) and γH2AX (Upstate, Billerica, Mass.) antibodies were used at 1:2000 and 1:1000 dilutions, respectively. […] or α-tubulin levels were used as loading control."}, "H2882/NSCLC": {"test_system": "H2882/NSCLC", "test": "β-lapachone lethality in NQO1 genotyped cancer cells", "type": "cell-based, human", "protocol": "(§3) LD50 responses were plotted as a function of NQO1 enzymatic levels. The notations, *1/*1 and *2/*2 represent the NQO1 status of each cell line as homozygous wild type (*1/*1) or homozygous polymorphic (*2/*2) genotypes. […] In (b), Kaplan-Meier survival curve of mice bearing orthotopic lung tumors implanted with *1/*1 A549 cells. Mice were treated intravenously (5 doses every other day) with β-lap-HPβ-CD or vehicle alone (HPβ-CD).\n(§4) Cell lines, mostly from a 5-panel nonsmall cell lung cancer panel from the UT Southwestern SPORE, were assessed for NQO1 polymorphism status and then monitored for NQO1 enzyme assays using β-lapachone or the standard menadione substrates. […] NQO1*2/*2 and *3/*3 polymorphisms were detected from NQO1 *1/*1 wild-type sequences by PCR-RFLP. Genomic DNA was extracted from the cells using Qiagen spin columns. Using previously described oligonucleotide primers, PCR products underwent gel electrophoresis. Final genotyping was determined based on the size and pattern of separated bands diagnostic for *1/*1 (wild-type), or polymorphic *2/*2 or *3/*3 NQO1 polymorphisms."}, "H596/NSCLC": {"test_system": "H596/NSCLC", "test": "β-lapachone lethality in NQO1 genotyped cancer cells", "type": "cell-based, human", "conditions": "NQO1 genotype *2/*2, 2 h exposure", "protocol": "as §3, §4"}}, "note": "Several values for one entry are separate records, joined by “and”; a condition that tells them apart may be missing. Equal values may be shown once."}
{"smiles": "CC1(C)CCC2=C(O1)c1ccccc1C(=O)C2=O", "note": "[β-Lap, 3,4-dihydro-2,2-dimethyl-2H-naphtho[1,2-b]pyran-5,6-dione]", "values": [{"measurement": "Increase of O2 consumption", "setting": "[1]", "result": "~40", "unit": "fold"}, {"measurement": "Response to β-lap", "setting": "[2]", "result": "not responsive"}, {"measurement": "LD50 β-Lap + CAT", "setting": "ZR751", "result": 3.2}, {"measurement": "LD50 p-Lap + DIC", "setting": "ZR751; human", "result": 6.8}, {"measurement": "LD50 β-Lap", "setting": "ZR751; human", "result": 1.4}, {"measurement": "LD50 β-Lap + CAT", "setting": "H2185", "result": 2.6}, {"measurement": "LD50 p-Lap + DIC", "setting": "H2185; human", "result": 6.4}, {"measurement": "LD50 β-Lap", "setting": "H2185; human", "result": 1.3}, {"measurement": "LD50 β-Lap + CAT", "setting": "HTB122", "result": 2.8}, {"measurement": "LD50 p-Lap + DIC", "setting": "HTB122; human", "result": 5.5}, {"measurement": "LD50 β-Lap", "setting": "HTB122; human", "result": 1.5}, {"measurement": "LD50 β-Lap + CAT", "setting": "MCF-7", "result": 4.8}, {"measurement": "LD50 p-Lap + DIC", "setting": "MCF-7; human", "result": 9.0}, {"measurement": "LD50 β-Lap", "setting": "MCF-7; human", "result": 1.7}, {"measurement": "LD50 β-Lap + CAT", "setting": "HTB24", "result": 3.5}, {"measurement": "LD50 p-Lap + DIC", "setting": "HTB24; human", "result": 6.2}, {"measurement": "LD50 β-Lap", "setting": "HTB24; human", "result": 1.5}, {"measurement": "LD50 β-Lap + CAT", "setting": "HCC1937", "result": 3.4}, {"measurement": "LD50 p-Lap + DIC", "setting": "HCC1937; human", "result": 5.0}, {"measurement": "LD50 β-Lap", "setting": "HCC1937; human", "result": 2.2}, {"measurement": "LD50", "setting": "[3]", "result": "less than 5 μM"}, {"measurement": "PAR formation after combined treatment", "setting": "PARP-1 in PC-3 cells; 1 Gy+3 μM β-lap, PC-3 cells, at 60 mins, no apparent levels after each agent alone", "result": "dramatic PAR formation"}, {"measurement": "Time to significant accumulation of PAR", "setting": "PARP-1 in PC-3 cells; β-lap-exposed PC-3 cells, blocked by dicoumarol", "result": "10 to 20", "unit": "min"}, {"measurement": "LD50 + DIC", "setting": "H2882/NSCLC; *2/*2, 2 h, + dicoumarol (40 μM)", "result": ">40", "unit": "µM"}, {"measurement": "β-Lap Lethality LD50", "setting": "H2882/NSCLC; NQO1 genotype *2/*2, 2 h exposure", "result": ">20", "unit": "µM"}, {"measurement": "β-Lap Lethality LD50", "setting": "H596/NSCLC", "result": ">20 µM and >10 µM"}]}
